# Source: patent US8846903B2, “Acyl-urea derivatives and uses thereof” (Yissum Research Development Company of the Hebrew …, priority 2007, dated 2014)
# Where “and” joins values, the source holds several entries; their conditions need not be identical. Equal values may be shown once.
# Key:
# [1] = test system: rats; test: Hippocampal kindling screen in rats; format: in vivo; details: for ED50: Rattus norvegicus, ip
# Protocol: In a fifth model, the hippocampal kindling assay was used to identify new drug candidates effective for the treatment of difficult-to-control seizure types and complex partial seizures, as well as compounds that may be effective as mood stabilizer for treating bipolar disorder, and was conducted according to the protocol described therein.
# Briefly, this test was conducted by using a bipolar stimulating electrode which was implanted in the hippocampus of rats, and the rats were kindled according to a described method. One week after implantation of the electrodes, the rats were stimulated with supra-threshold trains of 200 μA and 50 Hz for 10 seconds every 30 minutes for 6 hours on alternate days until the animals were fully kindled. […] The behavioral seizures were scored according to the following criteria (“seizure score”): stage 1—mouth and facial clonus; stage 2—stage 1 plus head nodding; stage 3—stage 2 plus forelimb clonus; stage 4—stage 3 plus rearing; and stage 5—stage 4 plus repeated rearing and falling.
# For these studies, each of the compounds was evaluated for its ability to block the kindled motor seizure (seizure scores 4 and 5) and limbic behavioral seizures (seizure score between 1 and 3). Additionally the new drug candidate was evaluated for their ability to reduce after discharge duration. The term “after-discharge-duration” is the duration (measured in seconds) of the stages defined above, which are elicited by the electrical currents delivered to the rats.
# At least one week after the fully kindled state was reached, a dose of the test compound was administered intraperitoneally and its effect on behavioral seizure score and after-discharge-duration following 200 μA stimulation was assessed at various time intervals before drug administration and after drug administration. Animals not displaying stage 4 or 5 were considered affected positively from seizure generalization.
# [2] = test system: mice; test: Psychomotor seizure (6 Hz, 32 mA) assay in mice; format: in vivo; details: Mus musculus, ip, intraperitoneal
# Protocol: In a third model, the compounds were tested for their ability to block 6 Hz (32 mA) seizures following intraperitoneal administration thereof to male mice. This test is aimed at identifying new drug candidates for the treatment of therapy-resistant partial seizures.
# (§1) Briefly, psychomotor seizure (6-Hz) assay measures the resistance of a subject to induced psychomotor seizures. The assay was conducted in mice which were pretreated with the test compound. At varying times after treatment, individual subjects were challenged with sufficient current of 32 mA at 6 Hz for 3 seconds, or 44 mA at 6 Hz for 3 seconds, delivered through corneal electrodes to elicit a psychomotor seizure. Animals which were not affected by the current were considered affected positively by the tested compound, thus compounds which were found active in this test are considered promising novel drug candidates for the treatment of therapy-resistant seizures.
# [3] = test system: mice; test: Psychomotor seizure (6 Hz, 44 mA) assay in mice; format: in vivo; details: Mus musculus
# Protocol: as §1
# [4] = test system: rats; test: Neurotoxicity, gait and stance test in rats (TD50); details: oral administration, median neurological toxic dose
# Protocol: (§2) The neurotoxicity of the compounds of the present embodiments was tested using rats which were treated by oral administration, and evaluated according to the “gait and stance” test, which assesses minimal neurotoxicity. […] The median neurological toxic dose (TD50) was used for quantization of neurotoxicity.
# [5] = test system: rats; test: Maximal electroshock seizure test (MES) in rats; format: in vivo; details: for ED50: Rattus norvegicus; for Fraction of rats which responded to the treatment: MES
# Text: Briefly, Maximal Electroshock Seizure (MES) assay measures drug capacity to prevent seizure spread and is thus considered to model generalized tonic-clonic seizures. […] The current was delivered to the subjects by means of corneal electrodes to produce tonic hind limb extension. Animals not displaying tonic hind limb extension were considered affected positively by the tested compound.
# [6] = in vivo; details: rat, po
# Protocol: as §2
# [7] = test system: rats; test: Subcutaneous metrazol seizure threshold test (scMet) in rats; format: in vivo; details: for ED50: Rattus norvegicus, po; for ED50 / ED50 scMet in Rats: rats, scMet model, oral administration (stated for Compound 1); for Fraction of rats which responded to the treatment: scMet
# Protocol: Subcutaneous Metrazole Seizure Threshold Test (scMet) assay measures the ability of an agent to elevate seizure threshold and is considered to model generalized absence seizures. The assay was performed by subcutaneous injection of 85 mg/kg of the convulsant agent metrazole that induces clonic seizures in at least 97% of all animal models (rats and mice).
# [8] = test system: mice; details: reported by Spielman et al. [19]; cited from earlier work
# [9] = test system: mice; details: reported by Spielman et al. [19]; cited from earlier work; remark: listed apart in the source
# [10] = test system: Sprague Dawley rats; test: Acute toxicity (acute motor impairment) after i.p. administration to rats; format: in vivo
# Protocol: Acute toxicity was determined by recording acute motor impairment after three doses of 30, 100 and 300 mg/kg of the tested compounds. The compounds were administered by the intraperitoneal (i.p.) route to three groups of 4 Sprague Dawley rats. […]
# [11] = test system: mice; details: tested by Spielman and co-workers; cited from earlier work
# [12] = test system: mice; test: Bicuculline (BIC) clonic seizure assay in mice; format: in vivo; details: Mus musculus, sc, BIC 2.7 mg/kg s.c., read-out: Bicucullin ED50
# [13] = test system: mice; test: animal or person; format: in vivo; details: Mus musculus, sc, read-out: Picrotoxin ED50
# [14] = test system: rats; details: results disclosed in the art; cited from earlier work
# [15] = test system: rats; details: results disclosed in the art; cited from earlier work; remark: listed apart in the source
# [16] = test system: rats; details: oral administration, literature values; cited from earlier work
# [17] = test system: mice; details: from [31]; cited from earlier work
# [18] = test system: mice; details: from [31]; cited from earlier work; remark: listed apart in the source
SMILES,ED50 [2] [mg/kg],ED50 [3] [mg/kg],"ED50 ([5]; rats, MES model) [mg/kg]",TD50 [6] [mg/kg],ED50 [7] [mg/kg],anti-convulsant activity [11],melting point [°C],other results
"CCCC(C(=O)NC(N)=O)C(C)C (racemic) [Compound 1, 1-(2-isopropylpentanoyl)urea]",42.2,71,16,95,45,,,"ED50 ([1]; rats, intraperitoneal): > 94 mg/kg; TD50 in Rats [4]: 94.5 mg/kg; ED50 scMet in Rats [7]: 45.4 mg/kg"
"CC[C@@H](C)[C@@H](CC)C(=O)NC(N)=O (racemic) [Compound 4, 1-(2-ethyl-3-methyl-pentanoyl)-urea]",21,48,24,97,14,lack beneficial activity,,"activity in the scMet assay [8]: only active at toxic doses; activity in the MES assay [9]: inactive; toxicity profile (animals toxic/tested) ([10]; 100 mg/kg i.p., 0.25 hours): 0/2; toxicity profile (animals toxic/tested) ([10]; 100 mg/kg i.p., 0.5 hours): 1/2; toxicity profile (animals toxic/tested) ([10]; 100 mg/kg i.p., 1 hour): 1/2; toxicity profile (animals toxic/tested) ([10]; 100 mg/kg i.p., 2 hours): 0/2; toxicity profile (animals toxic/tested) ([10]; 100 mg/kg i.p., 4 hours): 0/2; toxicity profile (animals toxic/tested) ([10]; 300 mg/kg i.p., 0.25 hours): 2/2; toxicity profile (animals toxic/tested) ([10]; 300 mg/kg i.p., 0.5 hours): 2/2; toxicity profile (animals toxic/tested) ([10]; 300 mg/kg i.p., 1 hour): 2/2; toxicity profile (animals toxic/tested) ([10]; 300 mg/kg i.p., 2 hours): 2/2; toxicity profile (animals toxic/tested) ([10]; 300 mg/kg i.p., 4 hours): 2/2"
"CCC[C@H](C(=O)NC(N)=O)C(C)C (stereo in doubt) [Compound 1R, R-1-(2-isopropylpentanoyl)urea]",43,56,,,,,,
"CCC[C@@H](C(=O)NC(N)=O)C(C)C [Compound 1S, S-1-(2-isopropylpentanoyl)urea]",46,75,,,,,,
"CC(C)C(C(=O)NC(N)=O)C(C)C [Compound 2, 1-(2-isopropyl-3-methylbutanoyl)urea]",43.3,48.6,33,,16,,199 to 200,"ED50 ([1]; rats, intraperitoneal): > 200 mg/kg; Fraction of rats which responded to the treatment ([5]; dose 15 mg/kg): 1/8; Fraction of rats which responded to the treatment ([5]; dose 30 mg/kg): 5/8; Fraction of rats which responded to the treatment ([5]; dose 60 mg/kg): 5/8; Fraction of rats which responded to the treatment ([5]; dose 120 mg/kg): 8/8; ED50 MES in Rats ([5]; rats, MES model): 32.7 mg/kg; ED50 scMet in Rats [7]: 15.7 mg/kg; Fraction of rats which responded to the treatment ([7]; dose 6 mg/kg): 1/8; Fraction of rats which responded to the treatment ([7]; dose 12 mg/kg): 2/8; Fraction of rats which responded to the treatment ([7]; dose 25 mg/kg): 6/8; Fraction of rats which responded to the treatment ([7]; dose 50 mg/kg): 8/8"
"CC(C)(C)CC(=O)NC(N)=O [Compound 3, 1-(3,3-dimethyl-butyryl)urea]",80,,63.9,143,26,,174 to 175,"ED50 ([1]; rats, intraperitoneal): 35 mg/kg; After Discharge Duration After administration ([1]; individual kindled rats, 15 minutes after intraperitoneal administration, before: 93-103 (rat 1), 28-75 (rat 2)): significantly decreased and 4 sec and 14 sec; Seizure Score After administration ([1]; individual kindled rats, 15 minutes after intraperitoneal administration, score before administration 5): 0; ED50 Hippocampal kindling in Rats ([1]; rats, intraperitoneal): 35.1 mg/kg; ED50 [12]: 205 mg/kg; ED50 [13]: 167 mg/kg"
"CCCCC(CC)C(=O)NC(N)=O (centres unmarked) [Compound 5, 1-(2-ethyl-hexanoyl)-urea]",,,,,,lack beneficial activity,158 to 159,
"CCCC(CCC)C(=O)NC(N)=O [Compound 6, 1-(2-propyl-pentanoyl)-urea]",57.8,105,53.8,,76.8,lack beneficial activity,,"ED50 ([1]; rats, intraperitoneal): > 180 mg/kg"
"CC(C)CC(=O)NC(N)=O [Compound 7, 3-methylbutanoylurea]",,,> 250,< 500,83,lack beneficial activity,,
"CCC(C)C(=O)NC(N)=O (centres unmarked) [Compound 8, 2-methylbutanoylurea]",,,,,,lack beneficial activity,178 to 180,
"CC(C)(C)C(=O)NC(N)=O [Compound 9, 2,2-dimethylpropanoylurea]",,,69.4,228,29.8,,148 to 149,
"CC1(C)C(C(=O)NC(N)=O)C1(C)C [Reference Compound 1, N-(2,2,3,3-tetramethylcyclopropanecarbonyl)urea]",,,,,,,,ED50 rat-MES model [14]: 29 mg/kg; ED50 rat-scMet model [15]: 92 mg/kg
"CC1(C)C(C(=O)NCC(N)=O)C1(C)C [Reference Compound 2, N-(2,2,3,3-tetramethylcyclopropylcarbonyl)glycinamide]",,,,,,,,ED50 rat-MES model [14]: 73 mg/kg; ED50 rat-scMet model [15]: higher than 250 mg/kg; TD50 [16]: above 500 mg/kg
"CCCC(CCC)C(=O)O [Valproic acid, valproic acid]",,,,,,,,Bicucullin ED50 [17]: 589 mg/kg; ED50 rat-scMet model [15]: 646 mg/kg; Picrotoxin ED50 [18]: 270 mg/kg
